# Measurements from US9708336B2, “Metallo-beta-lactamase inhibitors” (priority 2014, dated 2017).
# Where two headings read alike, the source gives them in different places.
# How the values were obtained:
# NDM-1 = NDM-1 (Klebsiella pneumoniae, UniProt C7C422); test: biochemical; assay type: biochemical
# VIM-1 = VIM-1 (Pseudomonas aeruginosa (strain ATCC 15692 / DSM 22644 / CIP 104116 / JCM 14847 / LMG 12228 / 1C / PRS 101 / PAO1), UniProt A0A0F7KYQ8); test: Enzyme activity: determination of IC50, fluorescence assay with CCF2-FA substrate (VIM-1); assay type: biochemical
# IMP-1 = IMP-1 (Serratia marcescens, UniProt P52699); test: biochemical; assay type: biochemical
# [1] = tested on: Klebsiella pneumoniae expressing VIM-1 (IHMA599644); test: Antibiotic potentiation activity: synergistic concentration (MITC95) with imipenem, OD600 growth; assay type: cell-based; conditions: for Klebsiella pneumoniae expressing VIM-1 (IHMA 599644) MITC95: concentration giving 95% inhibition of bacterial growth
# Summary of the method: (§1)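 Overnight colonies (35 °C) were suspended in saline, diluted 1:100 into 1.1× CAMHB, and exposed to test compound with imipenem at 4 μg/ml (optionally 1 μg/ml) in assay. After 22–24 h at 35 °C, growth was read by absorbance.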
# [2] = tested on: Escherichia coli expressing NDM-1 (CLB30016); test: as above; assay type: cell-based; conditions: for Escherichia coli expressing NDM-1 (CLB 30016) MITC95: concentration giving 95% inhibition of bacterial growth
# Summary of the method: as §1
# [3] = tested on: Serratia marcescens expressing IMP-1 (CL5741); test: as above; assay type: cell-based; conditions: for Serratia marcescens expressing IMP-1 (CL5741) MITC95: concentration giving 95% inhibition of bacterial growth
# Summary of the method: as §1
# [4] = NDM-1 enzyme, CCF2-FA substrate, read-out: NDM-1 IC50
# [5] = VIM-1 enzyme, CCF2-FA substrate, read-out: VIM-1 IC50
# [6] = IMP-1 enzyme, CCF2-FA substrate, read-out: IMP-1 IC50
# [7] = Klebsiella pneumoniae IHMA599644 (VIM-1), 95% growth inhibition
# [8] = (CLB30016, NDM-1), 95% growth inhibition
# [9] = Serratia marcescens CL5741 (IMP-1), 95% growth inhibition
# [10] = NDM-1 enzyme, CCF2-FA fluorescence assay, read-out: NDM-1 IC50
# [11] = VIM-1 enzyme, CCF2-FA fluorescence assay, read-out: VIM-1 IC50
# [12] = IMP-1 enzyme, CCF2-FA fluorescence assay, read-out: IMP-1 IC50
# [13] = Klebsiella pneumoniae expressing VIM-1 (IHMA599644), 95% growth inhibition
# [14] = Escherichia coli expressing NDM-1 (CLB30016), 95% growth inhibition
# [15] = Serratia marcescens expressing IMP-1 (CL5741), 95% growth inhibition
# [16] = fluorescence assay with CCF2-FA substrate, read-out: NDM-1 IC50
# [17] = fluorescence assay with CCF2-FA substrate, read-out: IMP-1 IC50
# [18] = IHMA599644 (VIM-1), 95% inhibition of bacterial growth
# [19] = CLB30016 (NDM-1), 95% inhibition of bacterial growth
# [20] = CL5741 (IMP-1), 95% inhibition of bacterial growth
# [21] = fluorescence assay with CCF2-FA substrate, read-out: VIM-1 IC50
# Chain of IMP-1 (P52699 whole entry, looked up): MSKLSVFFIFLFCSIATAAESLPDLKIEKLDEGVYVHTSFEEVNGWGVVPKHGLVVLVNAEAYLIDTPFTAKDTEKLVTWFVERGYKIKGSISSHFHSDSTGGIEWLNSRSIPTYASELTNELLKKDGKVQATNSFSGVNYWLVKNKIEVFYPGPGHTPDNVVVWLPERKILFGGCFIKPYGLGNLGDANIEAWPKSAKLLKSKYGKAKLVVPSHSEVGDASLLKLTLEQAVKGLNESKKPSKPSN
# Chain of NDM-1 (C7C422 whole entry, looked up, species assumed): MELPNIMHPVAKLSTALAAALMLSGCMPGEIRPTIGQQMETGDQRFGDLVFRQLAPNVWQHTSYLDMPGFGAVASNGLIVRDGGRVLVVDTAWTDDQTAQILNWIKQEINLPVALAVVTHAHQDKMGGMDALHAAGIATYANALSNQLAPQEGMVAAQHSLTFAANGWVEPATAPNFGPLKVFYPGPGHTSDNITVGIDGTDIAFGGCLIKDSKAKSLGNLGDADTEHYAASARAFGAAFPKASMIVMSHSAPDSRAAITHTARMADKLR
Structure (SMILES),IC50 (NDM-1; [4]) [nM],IC50 (VIM-1; [5]) [nM],IC50 (IMP-1; [6]) [nM],"Klebsiella pneumoniae MITC95 [1, 7] [µM]","Escherichia coli MITC95 [2, 8] [µM]","Serratia marcescens MITC95 [3, 9] [µM]",IC50 (NDM-1; [16]) [nM],IC50 (IMP-1; [17]) [nM],IC50 (VIM-1; [21]) [nM],other results
"CN(C)C1CCN(c2ccc(-c3cccc(S(N)(=O)=O)c3-c3nnn[nH]3)cn2)C1 (stereo not drawn) [Example 627, 3-[6-[3-(dimethylamino)pyrrolidin-1-yl]-3-pyridyl]-2-(1H-tetrazol-5-yl)benzenesulfonamide]",32.9,830,415,100,1.172,12.5,,,,
"NS(=O)(=O)c1c(C(F)(F)F)ccc(-c2ccc(C3CCN(CC4CCCNC4)CC3)cc2)c1-c1nnn[nH]1 (stereo not drawn) [Example 673, 4′-[1-(piperidin-3-ylmethyl)piperidin-4-yl]-2-(1H-tetrazol-5-yl)-4-(trifluoromethyl)biphenyl-3-sulfonamide]",10.1,9.07,1.35,62.5,3.125,3.125,,,,
"Nc1ccc(CN[C@H]2CC[C@H](c3ccc(C(F)(F)F)c(S(N)(=O)=O)c3-c3nnn[nH]3)CC2)cn1 [Example 682, 3-(4-{[(6-aminopyridin-3-yl)methyl]amino}cyclohex-yl)-2-(1H-tetrazol-5-yl)-6-(trifluoromethyl)benzene sulfonamide]",,0.684,,12.5,6.25,6.25,,,,IC50 (NDM-1): 4.12 nM; IC50 (IMP-1): 27.4 nM
"NS(=O)(=O)c1c(C(F)(F)F)ccc(-c2cccn3cncc23)c1-c1nnn[nH]1 [Example 485, 3-(Imidazo[1,5-a]pyridin-8-yl)-2-(1H-tetrazol-5-yl)-6-(trifluoromethyl)benzenesulfonamide]",,,,,,,,,,"IC50 (NDM-1; [10]): 1.57 nM; IC50 (VIM-1; [11]): 0.197 nM; IC50 (IMP-1; [12]): 4.98 nM; Klebsiella pneumoniae MITC95 [1, 13]: 6.25 µM; Escherichia coli MITC95 [2, 14]: 3.125 µM; Serratia marcescens MITC95 [3, 15]: 12.5 µM"
"NCC1CCN(c2ccc(C(F)(F)F)c(S(N)(=O)=O)c2-c2nnn[nH]2)CC1 [Example 821, 3-[4-(aminomethyl)-1-piperidyl]-2-(1H-tetrazol-5-yl)-6-(trifluoromethyl)benzenesulfonamide]",,,,,,,18.1,55.1,,"IC50 (VIM-1; VIM-1 IC50, fluorescence assay with CCF2-FA substrate): 0.496 nM; Klebsiella pneumoniae MITC95 [1, 18]: 12.5 µM; Escherichia coli MITC95 [2, 19]: 12.5 µM; Serratia marcescens MITC95 [3, 20]: 6.25 µM"
"Nc1nc2c(-c3ccc(CCCCCO)c(S(N)(=O)=O)c3-c3nn[nH]n3)cccc2s1 [Example 534, 3-(2-Aminobenzo[d]thiazol-4-yl)-6-(5-hydroxypentyl)-2-(2H-tetrazol-5-yl)benzenesulfonamide]",0.444,0.843,9.53,12.5,6.25,25,,,,
"NS(=O)(=O)c1c(C(F)(F)F)ccc(-c2ccc(C3CCN(C4CCNCC4)CC3)cc2)c1-c1nnn[nH]1 [Example 785, 4′-(1,4′-bipiperidin-4-yl)-2-(1H-tetrazol-5-yl)-4-(trifluoromethyl)biphenyl-3-sulfonamide]",,,,,,,4.21,1.09,12.2,"Klebsiella pneumoniae MITC95 [1, 18]: 25 µM; Escherichia coli MITC95 [2, 19]: 1.563 µM; Serratia marcescens MITC95 [3, 20]: 3.125 µM"
"CNC1CCc2c(-c3ccc(C(F)(F)F)c(S(N)(=O)=O)c3-c3nnn[nH]3)cccc21 (stereo not drawn) [Example 726, 3-[1-(methylamino)-2,3-dihydro-1H-inden-4-yl]-2-(1H-tetrazol-5-yl)-6-(trifluoromethyl)benzenesulfon-amide]",26.8,1.21,58.9,3.125,12.5,25,,,,
"Cc1cc(CNCc2ccc(-c3cccc(S(N)(=O)=O)c3-c3nnn[nH]3)cc2)n[nH]1 [Example 354, 4′-({[(5-methyl-1H-pyrazol-3-yl)methyl]amino}methyl)-2-(1H-tetrazol-5-yl)biphenyl-3-sulfonamide]",,,,,,,,,,"IC50 (NDM-1; [10]): 7.33 nM; IC50 (VIM-1; [11]): 325 nM; IC50 (IMP-1; [12]): 16.4 nM; Klebsiella pneumoniae MITC95 [1, 13]: 200 µM; Escherichia coli MITC95 [2, 14]: 2.344 µM; Serratia marcescens MITC95 [3, 15]: 2.344 µM"
"Nc1nc2c(-c3ccc(CCC(=O)O)c(S(N)(=O)=O)c3-c3nn[nH]n3)cccc2s1 [Example 538, 3-(4-(2-Aminobenzo[d]thiazol-4-yl)-2-sulfamoyl-3-(2H-tetrazol-5-yl)phenyl)propanoic acid]",1.4,40.3,53.8,100,6.25,50,,,,
"NS(=O)(=O)c1cccc(C2CCC2)c1-c1nnn[nH]1 [Example 149, 3-cyclobutyl-2-(1H-tetrazol-5-yl)benzenesulfonamide]",,,,,,,23.7,493,861,Klebsiella pneumoniae expressing VIM-1 (IHMA 599644) MITC95 [1]: 150 µM; Escherichia coli expressing NDM-1 (CLB 30016) MITC95 [2]: 1.563 µM; Serratia marcescens expressing IMP-1 (CL5741) MITC95 [3]: 6.25 µM
"CC(C)(C)Cc1cccc(S(N)(=O)=O)c1-c1nnn[nH]1 [Example 159, 3-neopentyl-2-(1H-tetrazol-5-yl)benzenesulfonamide]",,,,,,,34,526,3390,Klebsiella pneumoniae expressing VIM-1 (IHMA 599644) MITC95 [1]: >200 µM; Escherichia coli expressing NDM-1 (CLB 30016) MITC95 [2]: 3.125 µM; Serratia marcescens expressing IMP-1 (CL5741) MITC95 [3]: 18.75 µM
"N=CN1CCC(N)(c2ccc(-c3ccc(C(F)(F)F)c(S(N)(=O)=O)c3-c3nn[nH]n3)cc2)CC1 [Example 437, 4′-(4-amino-1-(iminomethyl)piperidin-4-yl)-2-(2H-tetrazol-5-yl)-4-(trifluoromethyl)-[1,1′-biphenyl]-3-sulfonamide]",,,,,,,,,,"IC50 (NDM-1; [10]): 7.95 nM; IC50 (VIM-1; [11]): 8 nM; IC50 (IMP-1; [12]): 7.82 nM; Klebsiella pneumoniae MITC95 [1, 13]: 3.125 µM; Escherichia coli MITC95 [2, 14]: 0.3906 µM; Serratia marcescens MITC95 [3, 15]: 0.3906 µM"
"NS(=O)(=O)c1nccc(N2CCC(N3CCOCC3)CC2)c1-c1nnn[nH]1 [Example 239, 4-(4-morpholin-4-ylpiperidin-1-yl)-3-(1H-tetrazol-5-yl)pyridine-2-sulfonamide]",,,,,,,383,3710,945,Klebsiella pneumoniae expressing VIM-1 (IHMA 599644) MITC95 [1]: 50 µM; Escherichia coli expressing NDM-1 (CLB 30016) MITC95 [2]: 1.563 µM; Serratia marcescens expressing IMP-1 (CL5741) MITC95 [3]: 50 µM
"CC(C)[C@@H](N)CN1CCC(c2ccc(-c3cccc(S(N)(=O)=O)c3-c3nnn[nH]3)cc2)CC1 [Example 614, 3-[4-[1-[(2R)-2-amino-3-methyl-butyl]-4-piperidyl]phenyl]-2-(1H-tetrazol-5-yl)benzenesulfonamide]",5.89,505,11.6,>200,1.172,1.563,,,,
"NS(=O)(=O)c1c(C(F)(F)F)ccc(N2CCCC3(CCNCC3)C2)c1-c1nnn[nH]1 [Example 772, 3-(2,9-diazaspiro[5.5]undec-2-yl)-2-(1H-tetrazol-5-yl)-6-(trifluoromethyl) benzenesulfonamide]",,,,,,,33.9,114,13.9,"Klebsiella pneumoniae MITC95 [1, 18]: 50 µM; Escherichia coli MITC95 [2, 19]: 12.5 µM; Serratia marcescens MITC95 [3, 20]: 50 µM"
"Cc1ccc(-c2ccc(Cl)c(S(N)(=O)=O)c2-c2nn[nH]n2)cc1 [Example 263, 4-chloro-4′-methyl-2-(2H-tetrazol-5-yl)-[1,1′-biphenyl]-3-sulfonamide]",,,,,,,,,,"IC50 (NDM-1; [10]): 3.27 nM; IC50 (VIM-1; [11]): 11.5 nM; IC50 (IMP-1; [12]): 21 nM; Klebsiella pneumoniae MITC95 [1, 13]: 18.75 µM; Escherichia coli MITC95 [2, 14]: 0.7813 µM; Serratia marcescens MITC95 [3, 15]: 0.7813 µM"
"NS(=O)(=O)c1cccc(-c2ccc(CNCCc3c[nH]cn3)cc2)c1-c1nnn[nH]1 [Example 384, 4′-({[2-(1H-imidazol-4-yl)ethyl]amino}methyl)-2-(1H-tetrazol-5-yl)biphenyl-3-sulfonamide]",,,,,,,,,,"IC50 (NDM-1; [10]): 13.6 nM; IC50 (VIM-1; [11]): 225 nM; IC50 (IMP-1; [12]): 293 nM; Klebsiella pneumoniae MITC95 [1, 13]: 50 µM; Escherichia coli MITC95 [2, 14]: 1.953 µM; Serratia marcescens MITC95 [3, 15]: 4.688 µM"
"NS(=O)(=O)c1nccc(N2CCCC(c3ccccn3)C2)c1-c1nnn[nH]1 (stereo not drawn) [Example 220, 4-(3-pyridin-2-ylpiperidin-1-yl)-3-(1H-tetrazol-5-yl)pyridine-2-sulfonamide]",,,,,,,22.8,2390,234,Klebsiella pneumoniae expressing VIM-1 (IHMA 599644) MITC95 [1]: >200 µM; Escherichia coli expressing NDM-1 (CLB 30016) MITC95 [2]: 12.5 µM; Serratia marcescens expressing IMP-1 (CL5741) MITC95 [3]: 75 µM
